Measured values taken from US10548861B2 (Academia Sinica, priority 2015, dated 2020).
Like-named read-outs stand apart in the source and are kept apart here.

Assays:
BCI-NSI hTERT = assay: 72 hr cytotoxicity: Bronchial epithelium; assay type: cell-based; conditions: Homo sapiens
NOSE = assay: cells; assay type: cell-based; conditions: Homo sapiens, 72 h
HS578 = assay: 72 hr cytotoxicity: Breast epithelium; assay type: cell-based; conditions: Homo sapiens, Hs578, 72 h
BMEC-hTert = assay: cells; assay type: cell-based; conditions: Homo sapiens, 72 h
HUVEC = assay: 72 hr cytotoxicity: Umbilical endothelium; assay type: cell-based; conditions: Homo sapiens
BMMSC = assay: 72 hr cytotoxicity: BM Mesenchyme; assay type: cell-based; conditions: Homo sapiens
MS-5 (mouse) = assay: 72 hr cytotoxicity: Adult BM stroma; assay type: cell-based; conditions: MS-5 murine stroma
HS27 = assay: cells; assay type: cell-based; conditions: Homo sapiens, HS27, 72 h
HS5 = assay: 72 hr cytotoxicity: Adult BM stroma; assay type: cell-based; conditions: Homo sapiens; HS5, 72 hr
FBMC = assay: 72 hr cytotoxicity: fetal BM stroma; assay type: cell-based; conditions: Homo sapiens
HFL1 = assay: 72 hr cytotoxicity: fetal lung fibroblast; assay type: cell-based; conditions: Homo sapiens; HFL1, 72 hr
IMR90 = assay: 72 hr cytotoxicity: fetal lung myofibroblast; assay type: cell-based; conditions: Homo sapiens, IMR-90, 72 h
CV1 primate = assay: 72 hr cytotoxicity: Renal fibroblasts; assay type: cell-based, African green monkey (Cercopithecus aethiops); conditions: Primates, Fibroblast
[1] = system: Cord Blood CFC (CFU-GM, BFU-E, CFU-C); assay: cells; assay type: cell-based; conditions: Homo sapiens
HL-60 = assay: Cytotoxicity: AML line; assay type: cell-based; conditions: Homo sapiens
Kasumi-1 AML-ETO = assay: Cytotoxicity: AML line; assay type: cell-based; conditions: Homo sapiens, Kasumi 1
[2] = system: AML-2 MLL-AF9 patient LSC; assay: LSC assay (MS5 co-culture, week 2 CAFC); assay type: cell-based; conditions: Homo sapiens, AML-2 LSC
CCRF-CEM = assay: Cytotoxicity: T-cell leukemia; assay type: cell-based; conditions: Homo sapiens
COG-LL-317 = assay: Cytotoxicity: T-ALL; assay type: cell-based; conditions: Homo sapiens
MOLT-4 = assay: Cytotoxicity: T-ALL; assay type: cell-based; conditions: Homo sapiens
[3] = system: Human B-ALL primary cells; assay: Cytotoxicity: patient sample; assay type: cell-based
H125 = assay: cells; assay type: cell-based; conditions: Homo sapiens, NCI-H125
H23 = assay: cells; assay type: cell-based; conditions: Homo sapiens, NCI-H23
H358 KRAS = assay: cells; assay type: cell-based; conditions: Homo sapiens, NCI-H358
H522 = assay: Cytotoxicity: NSCLC; assay type: cell-based; conditions: Homo sapiens, NCI-H522
H322 = assay: cells; assay type: cell-based; conditions: Homo sapiens, NCI-H322
H596 (PIK3CA) = assay: cells; assay type: cell-based; conditions: Homo sapiens, NCI-H596
H647 (KRAS) = assay: cells; assay type: cell-based; conditions: Homo sapiens, NCI-H647
A549 = assay: cells; assay type: cell-based; conditions: Homo sapiens
H226 = assay: cells; assay type: cell-based; conditions: Homo sapiens, NCI-H226
H520 (FGFR) = assay: cells; assay type: cell-based; conditions: Homo sapiens, NCI-H520
H82 = assay: 72 hr cytotoxicity: SCLC variant; assay type: cell-based; conditions: Homo sapiens, NCI-H82
H524 = assay: 72 hr cytotoxicity: SCLC variant; assay type: cell-based; conditions: Homo sapiens, NCI-H524
H128 = assay: 72 hr cytotoxicity: SCLC classic; assay type: cell-based; conditions: Homo sapiens, NCI-H128
H146 = assay: 72 hr cytotoxicity: SCLC classic; assay type: cell-based; conditions: Homo sapiens, NCI-H146
H209 = assay: 72 hr cytotoxicity: SCLC classic; assay type: cell-based; conditions: Homo sapiens, NCI-H209
H249 = assay: 72 hr cytotoxicity: SCLC classic; assay type: cell-based; conditions: Homo sapiens
H417 = assay: 72 hr cytotoxicity: SCLC variant; assay type: cell-based; conditions: Homo sapiens, NCI-H417
H526 = assay: 72 hr cytotoxicity: SCLC variant; assay type: cell-based; conditions: Homo sapiens, NCI-H526
H562 = assay: 72 hr cytotoxicity: SCLC classic; assay type: cell-based; conditions: Homo sapiens
H60 = assay: 72 hr cytotoxicity: SCLC classic; assay type: cell-based; conditions: Homo sapiens
H69 = assay: 72 hr cytotoxicity: SCLC classic; assay type: cell-based; conditions: Homo sapiens, NCI-H69
H678 = assay: 72 hr cytotoxicity: SCLC classic; assay type: cell-based; conditions: Homo sapiens
H719 = assay: 72 hr cytotoxicity: SCLC classic; assay type: cell-based; conditions: Homo sapiens
H841 = assay: 72 hr cytotoxicity: SCLC variant; assay type: cell-based; conditions: Homo sapiens, NCI-H841
H889 = assay: 72 hr cytotoxicity: SCLC classic; assay type: cell-based; conditions: Homo sapiens, NCI-H889
[4] = system: Ewing's sarcoma cell lines; assay: Cytotoxicity on sarcoma panel; assay type: cell-based; conditions: Homo sapiens, read-out: IC50 range
[5] = system: normal human, murine or primate cell and tissue types; assay: MTT / alamar blue cytotoxicity on panel of normal tissues; assay type: cell-based; conditions: read-out: IC50 range
[6] = system: MCL line JEKO-1 vs normal human tissues; assay type: cell-based
[7] = system: normal cord blood CD34+ cells; assay: Cytotoxicity on normal cord blood CD34+ cells; assay type: cell-based; conditions: Homo sapiens
CHLA-9 = assay: Cytotoxicity: Ewing's sarcoma; conditions: Homo sapiens, read-out: cytotoxic activity (IC50)
RH30 = assay: Cytotoxicity: Rhabdomyosarcoma (Alveolar type); conditions: Homo sapiens, Rh30, read-out: cytotoxic activity (IC50)
FTE-hTERT = assay: 72 hr cytotoxicity: Fallopian epithelium; assay type: cell-based; conditions: Homo sapiens; FTEC Fallopian tube epithelium, 72 hr; read-out: IC50
Z-138 = assay: Drug combination cytotoxicity with BO-1055; assay type: cell-based, human; conditions: Z-138, 72 hrs alamar blue
Granta = assay: Drug combination cytotoxicity with BO-1055; assay type: cell-based, human; conditions: 72 hrs alamar blue
REC-1 = assay: Drug combination cytotoxicity with BO-1055; assay type: cell-based, human; conditions: REC-1, 72 hrs alamar blue
Mino = assay: Drug combination cytotoxicity with BO-1055; assay type: cell-based, human; conditions: 72 hrs alamar blue
NECB1 = assay: Drug combination cytotoxicity with BO-1055; assay type: cell-based, human; conditions: NECB1, 72 hrs alamar blue
JEKO-1 = assay: Drug combination cytotoxicity with BO-1055; assay type: cell-based; conditions: Homo sapiens; JEKO-1, 72 hrs alamar blue; read-out: IC50 single drug
HBL2 = assay: Drug combination cytotoxicity with BO-1055; assay type: cell-based; conditions: Homo sapiens; HBL2, 72 hrs alamar blue; read-out: IC50 single drug
[8] = system: A673 Ewing's sarcoma cell line; assay: Combination cytotoxicity (Alamar blue, Compusyn CI); assay type: cell-based, human; conditions: A673, simultaneous, lattice format
[9] = Homo sapiens, read-out: IC50 single drug

N[C@@H](Cc1ccc(N(CCCl)CCCl)cc1)C(=O)O [Melphalan]
IC50 (BCI-NSI hTERT; 72 h): 80 µM | IC50 (NOSE): ≥ 25 µM | IC50 (HS578): > 100 µM | IC50 (BMEC-hTert): 160 µM | IC50 (HUVEC; HUVEC, 72 h): 320 µM | IC50 (BMMSC; 72 h): 160 µM | IC50 (MS-5 (mouse)): 1.64 µM | IC50 (HS27): 9.1 µM | IC50 (HS5): > 10 µM | IC50 (FBMC): > 10 µM | IC50 (HFL1): 9.2 µM | IC50 (IMR90): 56.8 µM | IC50 (CV1 primate): 99.5 µM | IC50 [1]: 7 µM | IC50 (HL-60): 0.17 µM | IC50 (Kasumi-1 AML-ETO): 0.004 µM | IC50 [2]: 7 µM | IC50 (CCRF-CEM): 0.001 µM | IC50 (COG-LL-317): 0.001 µM | IC50 (MOLT-4): 0.001 µM | IC50 [3]: 30 µM | IC50 (H125): 8.2 µM | IC50 (H23): 8.7 µM | IC50 (H358 KRAS): ≥ 30 µM | IC50 (H522): ≥ 30 µM | IC50 (H322): ≥ 75 µM | IC50 (H596 (PIK3CA)): ≥ 55 µM | IC50 (H647 (KRAS)): ≥ 55 µM | IC50 (A549): ≥ 10 µM | IC50 (H226): ≥ 55 µM | IC50 (H520 (FGFR)): ≥ 25 µM | IC50 (H82): 84 µM | IC50 (H524): 2.79 µM | IC50 (H128): ≥ 20 µM | IC50 (H146): ≥ 15 µM | IC50 (H209): 0.2 µM | IC50 (H249): ≥ 10 µM | IC50 (H417): 0.8 µM | IC50 (H526): 0.1 µM | IC50 (H562): 2.8 µM | IC50 (H60): ≥ 10 µM | IC50 (H69): 6.3 µM | IC50 (H678): 0.1 µM | IC50 (H719): 7.91 µM | IC50 (H841): 3.6 µM | IC50 (H889): 2.79 µM | IC50 [4]: 0.0001 to 0.02 µM | IC50 [5]: 7 to 320 µM | TW [6]: 1.60-6.36 fold | IC50 ([7]; 72 h): 7 µM | IC50 (CHLA-9): 0.0001 µM | IC50 (RH30): 0.02 µM

CC(C)NCCCn1c(Sc2cc3c(cc2I)OCO3)nc2c(N)ncnc21 [PUH71]
IC50 (BCI-NSI hTERT; Bci-NSI hTERT immortalized lung bronchus epithelium, 72 hr, read-out: IC50): 1.5 µM | IC50 (FTE-hTERT): 80 µM | IC50 (HUVEC; HUVEC endothelium, 72 hr, read-out: IC50): 0.35 µM | IC50 (BMMSC; HuMSC bone marrow mesenchymal stem cells, 72 hr, read-out: IC50): 0.63 µM | IC50 (Z-138; [9]): 0.162 µM | interaction with BO-1055 (combo-1, combo-2) (Z-138): synergistic with BO-1055 in both combinations | interaction with BO-1055 (combo-1, combo-2) (Granta; Granta): dually antagonistic | IC50 (Granta; Homo sapiens, GRANTA, read-out: IC50 single drug): 1.22 µM | interaction with BO-1055 (combo-1, combo-2) (REC-1): antagonistic against REC-1 in both combinations | IC50 (Mino; Homo sapiens, MINO, read-out: IC50 single drug): 0.263 µM | interaction with BO-1055 (combo-1, combo-2) (Mino; Mino): dually synergistic | IC50 (NECB1; [9]): 1.66 µM | interaction with BO-1055 (combo-1, combo-2) (NECB1): synergistic with BO-1055 against NECB1 in combo-1 and antagonistic in combo-2 | IC50 (JEKO-1): 0.037 µM | IC50 (HBL2): 0.499 µM | interaction with BO-1055 [8]: exhibits synergism | IC50 ([7]; CD34 (cord blood hematopoietic progenitors), 72 hr, read-out: IC50): 0.05 µM
